The record followed here is ChEMBL document CHEMBL1201862, “PubChem BioAssay data set” (2004).

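All cell lines were grown in 96-well plates and treated with compound for 48 hours. Abbreviation: GI50, concentration required for 50% inhibition of growth.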 Calls of active or inactive are those of the source. Rule as the data show it: active = GI50 up to about 1.1 µM and inactive = higher.

Test systems include SK-MEL-28; ACHN; EKVX; SR; K562; PC-3; Malme-3M; MCF7; HOP-62; 786-0; SN12C; MOLT-4; HCT-15; HCC 2998; SK-MEL-2; NCI-H23; TK-10; U-251; SNB-75.
Holding throughout (experiment): NCI-60 cell line screen, 48 h

Take `O=S(=O)(O)c1ccc2c(/N=N/c3ccc(/N=N/c4ccccc4)cc3)c(O)c(S(=O)(=O)O)cc2c1`: the GI50 in the assay on SK-MEL-28, in the assay on ACHN, in the assay on EKVX, in the assay with SR, in the assay on K562 and in the assay with PC-3 was > 100 µM (inactive) each time. The GI50 in the assay on Malme-3M, in the assay on MCF7, with HOP-62, with 786-0, in the assay with SN12C and with MOLT-4 was > 100 µM (inactive) each time. Also, the GI50 in the assay on HCT-15 was over 100 µM; in the assay on HCC 2998, > 100 µM (inactive); in the assay with SK-MEL-2 it was > 100 µM (inactive); with NCI-H23 it was > 100 µM (inactive); in the assay with TK-10, > 100 µM (inactive); in the assay with U-251, > 100 µM (inactive).

As to `COC1=C(OC)C(=O)C(Cc2c(Cl)nc3n2CCS3)=C(C)C1=O`, the GI50 with SK-MEL-28 was 14.2 µM (inactive); in the assay on ACHN, 14.8 µM (inactive); with EKVX, 12.1 µM (inactive); with SR, 7.59 µM (inactive); in the assay on K562 it was 15.5 µM (inactive); with PC-3, 17.7 µM (inactive). Moreover, the GI50 in the assay on Malme-3M is 7.83 µM (inactive); in the assay with MCF7 it was 12.9 µM (inactive); in the assay with HOP-62, 15.6 µM (inactive); with 786-0, 18.2 µM (inactive); with SN12C, 16.3 µM (inactive); in the assay with MOLT-4, 1.36 µM (inactive). For the same compound, the GI50 was 17.1 µM in the assay with HCT-15; 16.5 µM (inactive) with HCC 2998; 14.6 µM (inactive) in the assay on SK-MEL-2; 12.3 µM (inactive) in the assay with NCI-H23; 15.6 µM (inactive) in the assay with TK-10; 17.5 µM (inactive) with U-251.

On to `Nc1nc2ccc(Sc3ccc4nc(N)[nH]c(=O)c4c3)cc2c(=O)[nH]1`, for which the GI50 in the assay on SK-MEL-28, in the assay with ACHN, in the assay with EKVX, in the assay on SR, in the assay on K562 and in the assay with PC-3 was > 100 µM (inactive) throughout. Moreover, the GI50 in the assay with Malme-3M, with MCF7, with 786-0, in the assay with SNB-75, in the assay on SN12C and in the assay with MOLT-4 was > 100 µM (inactive) in each case. Moreover, the GI50 is over 100 µM in the assay with HCT-15; > 100 µM (inactive) with HCC 2998; > 100 µM (inactive) in the assay on SK-MEL-2; > 100 µM (inactive) in the assay with NCI-H23; > 100 µM (inactive) with TK-10; 42.5 µM (inactive) with U-251.

As to `CC1=NN=C(N)N/C1=C\C(Sc1ccc(Cl)cc1)c1ccc([N+](=O)[O-])cc1` (stereo unspecified), the GI50 with SK-MEL-28 was > 100 µM (inactive); with ACHN, 58.9 µM (inactive); with EKVX, 71.8 µM (inactive); in the assay with SR, > 100 µM (inactive); in the assay on K562 it was 62.4 µM (inactive); in the assay with PC-3, 66.7 µM (inactive). Further, the GI50 with Malme-3M was > 100 µM (inactive); with MCF7, 57.9 µM (inactive); in the assay on HOP-62, > 100 µM (inactive); with 786-0, 38.1 µM (inactive); in the assay with SN12C, 81.1 µM (inactive); in the assay with MOLT-4, 93.5 µM (inactive). The GI50 with HCT-15 is 94 µM; with HCC 2998, > 100 µM (inactive); in the assay with SK-MEL-2, > 100 µM (inactive); with NCI-H23, 80.9 µM (inactive); with TK-10 it was > 100 µM (inactive); with U-251, 66.7 µM (inactive).

For the compound `C=C(C)[C@@H]1CCC2=C[C@H](C/C(C)=C\C3=CC(C)=C(O3)[C@H]1O)OC2=O`, the GI50 is > 100 µM (inactive) with SK-MEL-28; 57.5 µM (inactive) with ACHN; > 100 µM (inactive) in the assay with EKVX; > 100 µM (inactive) in the assay on SR; > 100 µM (inactive) in the assay on K562; 73.8 µM (inactive) with PC-3. Further, the GI50 in the assay with Malme-3M was > 100 µM (inactive); with MCF7, 71.1 µM (inactive); in the assay on 786-0, 35.2 µM (inactive); in the assay with SNB-75, > 100 µM (inactive); in the assay on SN12C, 71.8 µM (inactive); in the assay on MOLT-4, > 100 µM (inactive). Further, the GI50 with HCT-15 is over 100 µM; in the assay with HCC 2998, > 100 µM (inactive); with SK-MEL-2, > 100 µM (inactive); in the assay on TK-10 it was 71 µM (inactive); in the assay with U-251 it was 49.8 µM (inactive).

For `Cc1c(-c2ccccc2)cc(O)c2nc3ccccc3n12`, the GI50 with SK-MEL-28 was > 100 µM (inactive); with ACHN, 21.6 µM (inactive); in the assay on EKVX it was > 100 µM (inactive); with SR, 7.06 µM (inactive); in the assay with K562, 5.82 µM (inactive); in the assay on PC-3, 31.7 µM (inactive). Further, the GI50 in the assay on Malme-3M is > 100 µM (inactive); in the assay on MCF7 it was 57.9 µM (inactive); in the assay with HOP-62 it was 21.1 µM (inactive); with 786-0, 29 µM (inactive); with SNB-75, 7.4 µM (inactive); in the assay with SN12C, > 100 µM (inactive). In addition, the GI50 was 8.28 µM (inactive) in the assay on MOLT-4; 6.32 µM in the assay on HCT-15; 17.8 µM (inactive) in the assay with HCC 2998; > 100 µM (inactive) in the assay on NCI-H23; > 100 µM (inactive) with TK-10; 6.75 µM (inactive) in the assay with U-251.

On to `CC[C@H]1CN(C)[C@H]2Cc3c([nH]c4ccccc34)C(=O)C[C@H]1C2C(=O)OC` (stereo partly specified), for which the GI50 in the assay with SK-MEL-28, in the assay with ACHN, in the assay with EKVX, with SR, in the assay with PC-3 and with Malme-3M was > 100 µM (inactive) each time. Moreover, the GI50 was > 100 µM (inactive) in the assay with MCF7; > 100 µM (inactive) in the assay on HOP-62; > 100 µM (inactive) in the assay on 786-0; > 100 µM (inactive) in the assay on SN12C; 73.6 µM (inactive) in the assay with MOLT-4; over 100 µM with HCT-15. The GI50 in the assay on HCC 2998, with SK-MEL-2, with NCI-H23, with TK-10 and in the assay on U-251 was > 100 µM (inactive) throughout.

As to `CCOC(=O)CNC(=O)C(CSC(=O)N(O)c1ccc(Br)cc1)NC(=O)CCC(N)C(=O)OCC` (stereo unspecified), the GI50 in the assay on SK-MEL-28 is > 50 µM (inactive); in the assay with ACHN, > 50 µM (inactive); with EKVX, > 50 µM (inactive); in the assay on SR, > 50 µM (inactive); in the assay with K562, 41.9 µM (inactive); with PC-3, > 50 µM (inactive). The GI50 with Malme-3M was > 50 µM (inactive); in the assay on MCF7, > 50 µM (inactive); in the assay on HOP-62 it was > 50 µM (inactive); with 786-0, > 50 µM (inactive); in the assay on SN12C, > 50 µM (inactive); in the assay on MOLT-4, 2.96 µM (inactive). Moreover, the GI50 was over 50 µM in the assay on HCT-15; > 50 µM (inactive) in the assay on HCC 2998; > 50 µM (inactive) in the assay on SK-MEL-2; > 50 µM (inactive) in the assay on NCI-H23; > 50 µM (inactive) in the assay on U-251.
